In the NIST ThermoML archive (doi:10.1007/s10765-008-0410-4):
Numbers after ± are expanded uncertainties.

Assay: xn = mol fraction of the nth substance listed
Settings: Liquid, Vibrating tube method

With CCCCn1cc[n+](C)c1.F[B-](F)(F)F [1-butyl-3-methylimidazolium tetrafluoroborate] + CCO the mass density (348.15 K, 20740 kPa, x1 = 0.9152) was 1174.39 ± 1.2 kg/m3, the mass density (348.15 K, 20870 kPa, x1 = 1) was 1185.63 ± 1.4 kg/m3 and the mass density (348.15 K, 21630 kPa, x1 = 0.3147) was 1023.15 ± 0.17 kg/m3. The mass density (348.15 K, 25140 kPa, x1 = 0.9152) was 1176.67 ± 1.2 kg/m3, the mass density (348.15 K, 25380 kPa, x1 = 0.0701) was 858.25 ± 0.24 kg/m3 and the mass density (348.15 K, 25410 kPa, x1 = 0.7452) was 1149.62 ± 0.82 kg/m3. For the same compound, the mass density (348.15 K, 25430 kPa, x1 = 0.5384) was 1104.11 ± 0.46 kg/m3, the mass density (348.15 K, 25850 kPa, x1 = 1) was 1188.16 ± 1.4 kg/m3 and the mass density (348.15 K, 26120 kPa, x1 = 0.3147) was 1025.95 ± 0.18 kg/m3. It also gave a mass density (348.15 K, 29980 kPa, x1 = 0.9152) of 1179.1 ± 1.2 kg/m3, a mass density (348.15 K, 30070 kPa, x1 = 0.7452) of 1152.07 ± 0.86 kg/m3 and a mass density (348.15 K, 30110 kPa, x1 = 1) of 1190.19 ± 1.5 kg/m3. For the same compound, the mass density (348.15 K, 30220 kPa, x1 = 0.0701) was 861.8 ± 0.26 kg/m3, the mass density (348.15 K, 30550 kPa, x1 = 0.3147) was 1028.55 ± 0.19 kg/m3 and the mass density (348.15 K, 30670 kPa, x1 = 0.5384) was 1107 ± 0.48 kg/m3. It also gave a mass density (348.15 K, 35070 kPa, x1 = 0.9152) of 1181.59 ± 1.3 kg/m3, a mass density (348.15 K, 35110 kPa, x1 = 1) of 1192.88 ± 1.5 kg/m3 and a mass density (348.15 K, 35140 kPa, x1 = 0.7452) of 1154.63 ± 0.89 kg/m3. It also gave a mass density (348.15 K, 35170 kPa, x1 = 0.0701) of 865.16 ± 0.28 kg/m3, a mass density (348.15 K, 35620 kPa, x1 = 0.5384) of 1109.59 ± 0.51 kg/m3 and a mass density (348.15 K, 35630 kPa, x1 = 0.3147) of 1031.33 ± 0.19 kg/m3. For the same compound, the mass density (348.15 K, 39560 kPa, x1 = 0.5384) was 1111.54 ± 0.53 kg/m3, the mass density (348.15 K, 39610 kPa, x1 = 1) was 1194.77 ± 1.6 kg/m3 and the mass density (348.15 K, 39740 kPa, x1 = 0.9152) was 1183.8 ± 1.3 kg/m3. It also gave a mass density (348.15 K, 39940 kPa, x1 = 0.7452) of 1156.96 ± 0.93 kg/m3, a mass density (348.15 K, 40010 kPa, x1 = 0.3147) of 1033.56 ± 0.2 kg/m3 and a mass density (348.15 K, 40030 kPa, x1 = 0.0701) of 868.18 ± 0.3 kg/m3. For the same compound, the mass density (373.15 K, 470 kPa, x1 = 1) was 1157.24 ± 1.2 kg/m3, the mass density (373.15 K, 510 kPa, x1 = 0.0701) was 812.28 ± 0.16 kg/m3 and the mass density (373.15 K, 520 kPa, x1 = 0.7452) was 1117.1 ± 0.63 kg/m3. The mass density (373.15 K, 750 kPa, x1 = 0.5384) was 1069.65 ± 0.33 kg/m3, the mass density (373.15 K, 780 kPa, x1 = 0.9152) was 1145.53 ± 0.98 kg/m3 and the mass density (373.15 K, 810 kPa, x1 = 0.3147) was 987.83 ± 0.16 kg/m3. It also gave a mass density (373.15 K, 5060 kPa, x1 = 0.5384) of 1072.77 ± 0.34 kg/m3, a mass density (373.15 K, 5090 kPa, x1 = 0.7452) of 1120.2 ± 0.66 kg/m3 and a mass density (373.15 K, 5140 kPa, x1 = 0.9152) of 1148.26 ± 1 kg/m3. For the same compound, the mass density (373.15 K, 5350 kPa, x1 = 1) was 1160.25 ± 1.2 kg/m3, the mass density (373.15 K, 5790 kPa, x1 = 0.0701) was 818.18 ± 0.18 kg/m3 and the mass density (373.15 K, 5820 kPa, x1 = 0.3147) was 992.08 ± 0.16 kg/m3. For the same compound, the mass density (373.15 K, 10070 kPa, x1 = 0.5384) was 1076.3 ± 0.36 kg/m3, the mass density (373.15 K, 10080 kPa, x1 = 1) was 1163.09 ± 1.2 kg/m3 and the mass density (373.15 K, 10570 kPa, x1 = 0.9152) was 1151.58 ± 1.1 kg/m3. The mass density (373.15 K, 10610 kPa, x1 = 0.7452) was 1123.82 ± 0.69 kg/m3, the mass density (373.15 K, 10950 kPa, x1 = 0.3147) was 996.25 ± 0.15 kg/m3 and the mass density (373.15 K, 11040 kPa, x1 = 0.0701) was 823.77 ± 0.2 kg/m3. For the same compound, the mass density (373.15 K, 15080 kPa, x1 = 0.9152) was 1154.27 ± 1.1 kg/m3, the mass density (373.15 K, 15130 kPa, x1 = 0.0701) was 827.92 ± 0.22 kg/m3 and the mass density (373.15 K, 15340 kPa, x1 = 0.5384) was 1079.9 ± 0.38 kg/m3. For the same compound, the mass density (373.15 K, 15710 kPa, x1 = 1) was 1166.39 ± 1.3 kg/m3, the mass density (373.15 K, 15730 kPa, x1 = 0.3147) was 999.95 ± 0.15 kg/m3 and the mass density (373.15 K, 15840 kPa, x1 = 0.7452) was 1127.11 ± 0.72 kg/m3. The mass density (373.15 K, 19860 kPa, x1 = 0.3147) was 1003.02 ± 0.15 kg/m3, the mass density (373.15 K, 20090 kPa, x1 = 0.7452) was 1129.7 ± 0.75 kg/m3 and the mass density (373.15 K, 20540 kPa, x1 = 0.9152) was 1157.45 ± 1.1 kg/m3. The mass density (373.15 K, 20610 kPa, x1 = 0.5384) was 1083.37 ± 0.4 kg/m3, the mass density (373.15 K, 20970 kPa, x1 = 1) was 1169.38 ± 1.3 kg/m3 and the mass density (373.15 K, 21220 kPa, x1 = 0.0701) was 833.79 ± 0.25 kg/m3. It also gave a mass density (373.15 K, 24670 kPa, x1 = 0.9152) of 1159.79 ± 1.1 kg/m3, a mass density (373.15 K, 25130 kPa, x1 = 0.0701) of 837.37 ± 0.27 kg/m3 and a mass density (373.15 K, 25460 kPa, x1 = 0.7452) of 1132.84 ± 0.79 kg/m3. For the same compound, the mass density (373.15 K, 25820 kPa, x1 = 1) was 1172.07 ± 1.4 kg/m3, the mass density (373.15 K, 25930 kPa, x1 = 0.5384) was 1086.76 ± 0.43 kg/m3 and the mass density (373.15 K, 25990 kPa, x1 = 0.3147) was 1007.35 ± 0.16 kg/m3. It also gave a mass density (373.15 K, 29760 kPa, x1 = 0.9152) of 1162.61 ± 1.2 kg/m3, a mass density (373.15 K, 30010 kPa, x1 = 0.5384) of 1089.27 ± 0.45 kg/m3 and a mass density (373.15 K, 30070 kPa, x1 = 0.7452) of 1135.43 ± 0.82 kg/m3. The mass density (373.15 K, 30120 kPa, x1 = 1) was 1174.39 ± 1.4 kg/m3.
